The text below walks through data of patent publication US20240182453A1, “NOVEL SUBSTITUTED PYRAZINE-CARBOXAMIDE DERIVATIVES” (Boehringer Ingelheim International GmbH, priority 2022, published 2024).

What is called IC50 is the midpoint of a concentration-inhibition curve. A higher IC50 goes with lower potency.

Each structure is given as a SMILES string.

human metabotropic Glutamate 4 receptor (mGluR4), sequence (Q14833 33-912): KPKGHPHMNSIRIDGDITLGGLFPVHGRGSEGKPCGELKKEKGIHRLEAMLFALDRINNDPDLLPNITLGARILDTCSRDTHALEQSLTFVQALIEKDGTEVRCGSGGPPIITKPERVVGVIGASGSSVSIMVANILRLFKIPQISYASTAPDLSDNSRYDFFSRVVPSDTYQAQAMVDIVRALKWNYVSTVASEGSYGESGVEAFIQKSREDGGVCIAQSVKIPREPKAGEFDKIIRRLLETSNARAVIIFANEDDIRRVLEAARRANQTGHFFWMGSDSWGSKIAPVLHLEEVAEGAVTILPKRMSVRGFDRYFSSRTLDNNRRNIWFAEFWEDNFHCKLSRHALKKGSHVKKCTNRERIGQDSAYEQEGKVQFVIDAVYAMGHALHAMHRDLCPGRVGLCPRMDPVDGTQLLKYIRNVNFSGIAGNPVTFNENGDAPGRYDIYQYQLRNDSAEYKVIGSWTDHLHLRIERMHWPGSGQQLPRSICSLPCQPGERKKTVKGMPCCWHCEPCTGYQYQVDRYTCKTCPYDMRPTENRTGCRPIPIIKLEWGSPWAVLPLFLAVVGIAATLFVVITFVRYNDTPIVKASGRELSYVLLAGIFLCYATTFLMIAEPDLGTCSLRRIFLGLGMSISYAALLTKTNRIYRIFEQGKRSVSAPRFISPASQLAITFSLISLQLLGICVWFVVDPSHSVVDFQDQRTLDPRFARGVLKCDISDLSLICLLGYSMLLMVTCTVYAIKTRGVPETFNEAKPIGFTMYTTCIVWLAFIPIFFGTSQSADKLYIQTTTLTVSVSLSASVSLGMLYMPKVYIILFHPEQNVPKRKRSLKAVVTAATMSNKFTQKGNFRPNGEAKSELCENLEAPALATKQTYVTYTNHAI

The test addresses human metabotropic Glutamate 4 receptor (mGluR4) (Homo sapiens (Human), UniProt Q14833). Kind of test: Assay A: in vitro testing of mGluR4 potency (glutamate-induced cAMP lowering, HTRF cAMP). Format: cell-based. As to conditions: HEK293 cells overexpressing human mGluR4; 10 uM L-glutamic acid, 1 uM forskolin; compounds of the present invention. As to the method: A. In Vitro Testing of mGluR4 Potency
The in vitro activity of the compounds according to the invention may be investigated as follows:
The HEK293 cell overexpressing the human metabotropic Glutamate 4 receptor are thawed at 37° C. and immediately diluted with cell culture medium. After centrifugation, the cell pellet is re-suspended in medium and then distributed from a stirred spinner flask into the wells of the assay plate. The plates are incubated for one hour at room temperature before they are incubated for 24 hours at 37° C./5% CO2. After washing the cells in the plate three times with 80 uL HBSS/HEPES buffer (10 uL buffer remained in the wells after washing), 5 uL per well of compounds diluted in HBSS/HEPES buffer containing 0.2% BSA (final concentration: 0.1%) and 1 mM IBMX (final concentration: 0.5 mM) are added to the wells of the assay plate. Thereafter 5 uL per well of L-Glutamic acid (final concentration: 10 uM), forskolin (final concentration: 1 uM) and 1 mM IBMX (final concentration: 0.5 mM) dissolved in HBSS/HEPES buffer containing 0.2% BSA (final concentration: 0.1%) are added to the assay plate (final DMSO concentration: 1%). Several wells of the assay plate are used either for the positive and the negative controls or for the cAMP standard curve. The assay plate is incubated for 30 minutes at room temperature. Then 5 ul per well of Anti-cAMP-Antibody-d2 solution and 5 ul per well of cAMP-Europium Cryptate dilution are added to all wells of the plate and the plate is incubated another 60 minutes light protected at room temperature. The emission at 615 nm and 665 nm (Excitation wavelength: 320 nm) are measured on the EnVision™ reader (Perkin Elmer). The ratio between the emission at 665 nm and 615 is calculated by the reader. The whole assay is performed in the dark or under green light.
The cAMP standard is prepared by diluting the cAMP stock solution with HBSS/Hepes buffer: 5 μl/well of the cAMP dilutions (in HBSS/Hepes buffer containing 1 mM IBMX and 0.2% BSA—final concentration: 0.5 mM IBMX and 0.1% BSA) are added to 10 ul/well HBSS/Hepes buffer plus 5 ul/well 4% DMSO in HBSS/Hepes containing 0.2% BSA (final DMSO concentration: 1%—like in the wells containing compounds) in the wells of the assay plate. The final cAMP concentrations in the assay plate are: 0, 0.17, 0.69, 2.78, 11.1, 44.5, 178, and 712 nM (two wells/cAMP concentration).
Each assay microtiter plate contained also wells with vehicle controls instead of compound as controls for L-Glutamic acid induced signal (negative control; 100% CTL; 10 uM L-Glutamic acid+1 uM forskolin+0.5 mM IBMX+1% DMSO) and wells with vehicle controls without L-Glutamic acid as controls for non-specific changes in signal (positive control; 0% CTL; 0 uM L-Glutamic acid+1 uM forskolin+0.5 mM IBMX+1% DMSO).
The analysis of the data is performed by the calculation the ratio between the emission at 665 nm and the emission at 615 nm (Em665/Em615 ratio). Thereafter the signals of the compounds are normalized using the positive and negative controls by the following formula:
PoC=100×((Signal Sample−Positive Control)/(Negative Control−Positive Control))
The molecule `COCCn1c([C@@H](NC(=O)c2cnc(C(F)F)cn2)[C@@H]2CCOC2)nc2cc(OC(F)(F)F)ccc21` [Example 23, 5-(difluoromethyl)-N-[(S)-[1-(2-methoxyethyl)-5-(trifluoromethoxy)-1H-1,3-benzodiazol-2-yl][(3S)-oxolan-3-yl]methyl]pyrazine-2-carboxamide] gave an IC50 of 4 nM.
To `COCCn1c([C@H](CC2CC2)NC(=O)c2cnc(C)cn2)nc2cc(F)ccc21` [Example 24, N-[(1S)-2-cyclopropyl-1-[5-fluoro-1-(2-methoxyethyl)-1H-1,3-benzodiazol-2-yl]ethyl]-5-methylpyrazine-2-carboxamide] belongs 7 nM.
`CCn1c([C@@H](NC(=O)c2cnc(C)cn2)C2CC2)nc2cc(Cl)ccc21` [Example 25, N-[(S)-(5-chloro-1-ethyl-1H-1,3-benzodiazol-2-yl)(cyclopropyl)methyl]-5-methylpyrazine-2-carboxamide]: the IC50 turned out to be 3 nM.
To `CO[C@H](C)[C@H](NC(=O)c1cnc(C)cn1)c1nc2cc(Br)c(F)cc2n1C` [Example 26, N-[(1R,2R)-1-(5-bromo-6-fluoro-1-methyl-1H-1,3-benzodiazol-2-yl)-2-methoxypropyl]-5-methylpyrazine-2-carboxamide] belongs 7 nM; to `Cc1cnc(C(=O)N[C@H](c2nc3cc(F)ccc3n2CC(F)(F)F)C2CC2)cn1` [Example 27, N-[(S)-cyclopropyl[5-fluoro-1-(2,2,2-trifluoroethyl)-1H-1,3-benzodiazol-2-yl]methyl]-5-methylpyrazine-2-carboxamide], 5 nM.
The molecule `COCCn1c([C@@H](NC(=O)c2cnc(C)cn2)[C@@H](C)OC(F)F)nc2cc(F)c(F)cc21` [Example 28, N-[(1R,2R)-1-[5,6-difluoro-1-(2-methoxyethyl)-1H-1,3-benzodiazol-2-yl]-2-(difluoromethoxy)propyl]-5-methylpyrazine-2-carboxamide] returned an IC50 of 10 nM.
The value for `CO[C@H](C)[C@H](NC(=O)c1cnc(C)cn1)c1nc2cc(Cl)ccc2n1C` [Example 29, N-[(1R,2R)-1-(5-chloro-1-methyl-1H-1,3-benzodiazol-2-yl)-2-methoxypropyl]-5-methylpyrazine-2-carboxamide] was 11 nM; that for `Cn1c([C@@H](NC(=O)c2cnc(C(F)F)cn2)C2CC2)nc2cc(F)ccc21` [Example 30, N-[(S)-cyclopropyl (5-fluoro-1-methyl-1H-1,3-benzodiazol-2-yl)methyl]-5-(difluoromethyl)pyrazine-2-carboxamide] was 18 nM; that for `Cc1cnc(C(=O)N[C@H](c2nc3cc(C(F)(F)F)ccc3n2C)C2CC2)cn1` [Example 31, N-[(S)-cyclopropyl[1-methyl-5-(trifluoromethyl)-1H-1,3-benzodiazol-2-yl]methyl]-5-methylpyrazine-2-carboxamide] was 6 nM.
The value for `Cc1cnc(C(=O)N[C@H](c2nc3cc(C(F)(F)F)ccc3n2C)[C@]2(O)CCCOC2)cn1` [Example 32, N-[(R)-[(3R)-3-hydroxyoxaN-3-yl][1-methyl-5-(trifluoromethyl)-1H-1,3-benzodiazol-2-yl]methyl]-5-methylpyrazine-2-carboxamide] was 16 nM; that for `CCn1c([C@@H](NC(=O)c2cnc(C(F)F)cn2)C2CC2)nc2c(C)c(C#N)ccc21` [Example 33, N-[(S)-(5-cyano-1-ethyl-4-methyl-1H-1,3-benzodiazol-2-yl)(cyclopropyl)methyl]-5-(difluoromethyl)pyrazine-2-carboxamide] was 4 nM.
Regarding `Cc1cnc(C(=O)N[C@H](c2nc3cc(Br)ccc3n2C)C2CC2)cn1` [Example 34, N-[(S)-(5-bromo-1-methyl-1H-1,3-benzodiazol-2-yl)(cyclopropyl)methyl]-5-methylpyrazine-2-carboxamide], the IC50 stood at 5 nM.
The value for `COCCn1c([C@@H](NC(=O)c2cnc(C)cn2)C2CC2)nc2cc(C(F)(F)F)ccc21` [Example 35, N-[(S)-cyclopropyl[1-(2-methoxyethyl)-5-(trifluoromethyl)-1H-1,3-benzodiazol-2-yl]methyl]-5-methylpyrazine-2-carboxamide] was 2 nM; that for `CCn1c([C@@H](NC(=O)c2cnc(C)cn2)C2CC2)nc2cc(C(F)(F)F)ccc21` [Example 36, N-[(S)-cyclopropyl[1-ethyl-5-(trifluoromethyl)-1H-1,3-benzodiazol-2-yl]methyl]-5-methylpyrazine-2-carboxamide] was 3 nM.
In the case of `Cc1cnc(C(=O)N[C@H](c2nc3cc(F)ccc3n2CC(F)F)C(C)C)cn1` [Example 37, N-[(1S)-1-[1-(2,2-difluoroethyl)-5-fluoro-1H-1,3-benzodiazol-2-yl]-2-methylpropyl]-5-methylpyrazine-2-carboxamide], the IC50 was 9 nM.
The value for `CCn1c([C@@H](NC(=O)c2cnc(C)cn2)C2CC2)nc2c(C)c(C#N)ccc21` [Example 38, N-[(S)-(5-cyano-1-ethyl-4-methyl-1H-1,3-benzodiazol-2-yl)(cyclopropyl)methyl]-5-methylpyrazine-2-carboxamide] was 5 nM; that for `CCn1c([C@@H](NC(=O)c2cnc(C)cn2)C(C)(C)O)nc2cc(F)ccc21` [Example 39, N-[(1R)-1-(1-ethyl-5-fluoro-1H-1,3-benzodiazol-2-yl)-2-hydroxy-2-methylpropyl]-5-methylpyrazine-2-carboxamide] was 28 nM.
`COCCn1c([C@@H](NC(=O)c2cnc(C(F)F)cn2)[C@@H]2CCCO2)nc2cc(OC(F)(F)F)ccc21` [Example 40, 5-(difluoromethyl)-N-[(R)-[1-(2-methoxyethyl)-5-(trifluoromethoxy)-1H-1,3-benzodiazol-2-yl][(2S)-oxolan-2-yl]methyl]pyrazine-2-carboxamide]: the IC50 stood at 2 nM.
`CO[C@H](C)[C@H](NC(=O)c1cnc(C)cn1)c1nc2cc(OC(F)(F)F)ccc2n1CCOC(C)C` [Example 41, N-[(1R,2R)-2-methoxy-1-{1-[2-(propan-2-yloxy)ethyl]-5-(trifluoromethoxy)-1H-1,3-benzodiazol-2-yl}propyl]-5-methylpyrazine-2-carboxamide] had an IC50 of 2 nM.
The value for `Cc1cnc(C(=O)N[C@H](c2nc3c(Cl)c(Br)ccc3n2C)C2CC2)cn1` [Example 42, N-[(S)-(5-bromo-4-chloro-1-methyl-1H-1,3-benzodiazol-2-yl)(cyclopropyl)methyl]-5-methylpyrazine-2-carboxamide] was 2 nM; that for `CO[C@H](C)[C@H](NC(=O)c1cnc(C)cn1)c1nc2cc(OC(F)(F)F)ccc2n1C` [Example 43, N-[(1R,2R)-2-methoxy-1-[1-methyl-5-(trifluoromethoxy)-1H-1,3-benzodiazol-2-yl]propyl]-5-methylpyrazine-2-carboxamide] was 10 nM; that for `Cc1cnc(C(=O)N[C@H](c2nc3c(C)c(C#N)ccc3n2CC(F)F)C2CC2)cn1` [Example 44, N-[(S)-[5-cyano-1-(2,2-difluoroethyl)-4-methyl-1H-1,3-benzodiazol-2-yl](cyclopropyl)methyl]-5-methylpyrazine-2-carboxamide] was 5 nM.
The value for `Cc1cnc(C(=O)N[C@H](c2nc3c(C)c(C#N)ccc3n2C)C2CC2)cn1` [Example 45, N-[(S)-(5-cyano-1,4-dimethyl-1H-1,3-benzodiazol-2-yl)(cyclopropyl)methyl]-5-methylpyrazine-2-carboxamide] was 26 nM.
For the molecule `CCn1c([C@@H](NC(=O)c2cnc(C)cn2)C2CC2)nc2cc(OC(F)(F)F)ccc21` [Example 46, N-[(S)-cyclopropyl[1-ethyl-5-(trifluoromethoxy)-1H-1,3-benzodiazol-2-yl]methyl]-5-methylpyrazine-2-carboxamide], the IC50 came out at 2 nM.
The value for `Cc1cnc(C(=O)N[C@H](c2nc3cc(Cl)ccc3n2C)C2CC2)cn1` [Example 47, N-[(S)-(5-chloro-1-methyl-1H-1,3-benzodiazol-2-yl)(cyclopropyl)methyl]-5-methylpyrazine-2-carboxamide] was 9 nM.
